Results reported in US12485107B2, “Methods for the prevention or treatment of cytokine storm” (Beth Israel Deaconess Medical Center, Inc., priority 2019, dated 2025).
“Also recorded” adds a separate entry of the source.

Experiments:
[1] = system: primary murine peritoneal macrophages; assay: Cytokine array/ELISA of conditioned medium of primary murine peritoneal macrophages stimulated with paclitaxel-generated ID8 debris; format: cell-based; conditions: PTUPB 5 or 10 μM, 2 hours
Method: Macrophages were treated with vehicle or PTUPB (1-10 μM) in Dulbecco's phosphate-buffered saline containing calcium and magnesium (PBS^+/+) (Lonza, Basel, Switzerland) and incubated for 2 hours at 37° C. Carboplatin- or paclitaxel-generated ID8 or OVCAR5 debris was added to murine or human macrophages, respectively, at a 1:4 (macrophage:dead cell body) ratio and incubated for 1 hour at 37° C. Next, plates were aspirated, macrophages were re-fed with serum-free medium, and incubated overnight at 37° C. […]
In vivo cytokines (serum or ascites) or cytokines in conditioned medium of macrophages treated with PTUPB and exposed to paclitaxel- or carboplatin-generated debris, were assessed according to the protocols provided by Proteome Profiler Mouse Cytokine Array Kit Panel A, Proteome Profiler Mouse Angiogenesis Array Kit, or Proteome Profiler Human Cytokine Array Kit Panel A (R&D Systems, Inc., Minneapolis, MN). […]
For quantitation of pro-inflammatory cytokines, serum or conditioned medium from macrophages treated with PTUPB and stimulated with paclitaxel-generated ID8 debris or from paclitaxel-generated ID8 debris alone without macrophages was used according to the protocols provided in each ELISA kit (R&D Systems, Minneapolis, MN). […]

[2] = system: RAW264.7 murine macrophages; assay: Annexin V/PI cell death analysis of RAW264.7 macrophages; format: cell-based; conditions: 5 μM, 24 hours, vs vehicle
Method: Murine (ID8) or human (OVCAR5) ovarian tumor cells were treated with vehicle or a chemotherapeutic agent (e.g., cisplatin, carboplatin, or paclitaxel) as described. B/CMBA.Ov murine ovarian epithelial cells were treated with vehicle or PTUPB (1 or 5 μM) for 24 hours. The floating population (e.g., dead cells or “debris”) was collected, and the remaining adhered cells were trypsinized and combined with the dead cells. RAW264.7 murine macrophages were treated with vehicle or PTUPB (5 μM) for 24 hours. The floating population was collected and the remaining adhered cells were detached using a cell scraper (Corning Inc., Corning, NY) and combined with the dead cells. Cells were counted via hemocytometer, pelleted, and resuspended in PBS at 1×10^6 cells/mL. Next, 2×10^5 cells were stained with annexin V and propidium iodide (PI) according to FITC Annexin V/Dead Cell Apoptosis Kit protocol (Life Technologies, Carlsbad, CA). Staining was assessed using the BD LSR Fortessa (BD Biosciences, San Jose, CA) at the Dana-Farber Cancer Institute Jimmy Fund Flow Cytometry Core, and analyzed using FlowJo software (Tree Star Inc., Ashland, OR). Experiments were performed three times with similar results.

[3] = system: RAW264.7 murine macrophages; assay: LC-MS/MS oxylipin profiling of conditioned medium of debris-stimulated RAW264.7 macrophages; format: cell-based; conditions: 5 μM, 2 hours; paclitaxel-generated ID8 debris
Method: Macrophages were treated with vehicle or PTUPB (1-10 μM) in Dulbecco's phosphate-buffered saline containing calcium and magnesium (PBS^+/+) (Lonza, Basel, Switzerland) and incubated for 2 hours at 37° C. Carboplatin- or paclitaxel-generated ID8 or OVCAR5 debris was added to murine or human macrophages, respectively, at a 1:4 (macrophage:dead cell body) ratio and incubated for 1 hour at 37° C. Next, plates were aspirated, macrophages were re-fed with serum-free medium, and incubated overnight at 37° C. The conditioned medium was collected the next day, centrifuged at 1100 rpm for 5 minutes to remove particulates, and stored at −20° C. until further analysis via cytokine array, ELISA, or LC-MS/MS. Collection of RAW264.7 murine macrophage conditioned medium was repeated using debris from three distinct collections for a total of three separate experiments. Collection of human monocyte-derived macrophage conditioned medium was repeated using peripheral blood monocytes from three different human donors and debris from three distinct collections for a total of three separate experiments. Collection of primary murine peritoneal macrophages was repeated using macrophages pooled from 5-10 C57BL/6 female mice and debris from two distinct collections for a total of two separate experiments.
Oxylipins in conditioned medium from 3 biological repeats were analyzed by LC-MS/MS as described previously (Yang et al., Anal. Chem. 81(19):8085-8093 (2009)). In brief, 1 mL of medium was loaded onto the conditioned Oasis HLB solid phase extraction cartridge (Waters, Milford, MA), washed with 5% methanol solution, and eluted with 0.5 mL of methanol and 1.5 mL of ethyl acetate consequently. The elution was concentrated and reconstituted in 50 μL of methanol solution before injection into the UPLC/MS/MS system (Agilent 1200 SL and Sciex 4000 Qtrap system). The optimized parameters for LC-MS/MS were described in detail previously (Yang et al., supra).

[4] = system: intraperitoneal ovarian tumors (ID8); assay: In vivo cytokines (serum, ascites) in mice bearing intraperitoneal ID8 ovarian tumors
Method: In vivo cytokines (serum or ascites) or cytokines in conditioned medium of macrophages treated with PTUPB and exposed to paclitaxel- or carboplatin-generated debris, were assessed according to the protocols provided by Proteome Profiler Mouse Cytokine Array Kit Panel A, Proteome Profiler Mouse Angiogenesis Array Kit, or Proteome Profiler Human Cytokine Array Kit Panel A (R&D Systems, Inc., Minneapolis, MN). Array control allows for comparison between membranes. For in vivo analysis, n=2 mice/group (serum); n=1 mouse/group (ascites).
For quantitation of pro-inflammatory cytokines, serum or conditioned medium from macrophages treated with PTUPB and stimulated with paclitaxel-generated ID8 debris or from paclitaxel-generated ID8 debris alone without macrophages was used according to the protocols provided in each ELISA kit (R&D Systems, Minneapolis, MN).
(§1) All animal studies were reviewed and approved by the Animal Care and Use Committee of Beth Israel Deaconess Medical Center, Boston, MA Mice were housed at a maximum of 5 animals per cage in a pathogen-free facility with unlimited access to sterile water and chow. Daily welfare evaluations and animal sacrifices were carried out according to the Committee guidelines. For murine injections, chemotherapy-generated murine (ID8) or human (OVCAR5) ovarian tumor cell debris was combined with ID8 or OVCAR5 living cells at equal volumes in PBS. Six-week-old female C57BL/6 (The Jackson Laboratory, Bar Harbor, ME) or SCID mice (Charles River, Cambridge, MA) were injected subcutaneously or intraperitoneally with 100 μL/mouse of ID8 or OVCAR5 cells, respectively. For orthotopic injections, 6-week-old C57BL/6 female mice were injected with 20 μL/mouse of matrigel (Becton Dickinson and Company, Franklin Lakes, NJ) mixed with paclitaxel-generated ID8 debris and/or ID8 living cells at a 1:1 (matrigel:cells) ratio directly into the right ovarian bursa. Systemic treatment with PTUPB (30 mg/kg/day) or control was administered via mini-osmotic pumps (Alzet Inc., Cupertino, CA) implanted into the peritoneum of the mice 4 weeks post-injection. […]

[5] = system: debris-stimulated orthotopic ovarian tumor (ID8); assay: Debris-stimulated orthotopic ID8 ovarian tumor model; format: in vivo, mice; conditions: PTUPB 30 mg/kg/day
Method: as §1, with “post-injection. Treatment ended 28 days after implantation of the pumps.” for “post-injection.”

NS(=O)(=O)c1ccc(-n2nc(CCCNC(=O)Nc3ccc(C(F)(F)F)cc3)cc2-c2ccccc2)cc1 [PTUPB, 4-(5-phenyl-3-{3-[3-(4-trifluoromethyl-phenyl)-ureido]propyl}-pyrazol-1-yl) benzenesulfonamide] was tested, and the “debris-stimulated cytokine surge by primary murine peritoneal macrophages” value [1] was “inhibited a debris-stimulated cytokine surge”, the “induction of cell death of RAW264.7 macrophages” value [2] was “did not induce cell death” and the “debris-stimulated surge of COX-derived lipid mediators PGF2α, PGD2, PGJ2 released by macrophages” value [3] was “suppressed this debris-stimulated surge of bioactive lipids; also recorded: inhibits the surge”. For the same compound, the “reduction of PGE2, THF diol, 15-HETE, 11-HETE, 5-HETE by debris-stimulated macrophages” value [3] was “neutralized the reduction of these lipids; also recorded: neutralizing the reduction”, the “release of 15-oxoETE by macrophages in the presence of debris” value [3] was “suppressed the release of 15-oxoETE” and the “serum levels of CXCL13/BCA-1 and SDF-1/CXCL12” value ([4]; ID8-bearing mice administered systemic chemotherapy (carboplatin), PTUPB-treated vs control) was “reduced serum levels”. For the same compound, the “ascites levels of PIGF-2, PTX-3, MMP9, CCL2/MCP-1, fractalkine/CX3CL1, angiopoietin-1” value ([4]; intraperitoneal ID8 tumors, day 60 post-injection, vs control) was “decreased levels”, the “pro-angiogenic factors serpin E1/PAI-1 and IGFBP1 in serum” value ([4]; mice i.p. injected with ID8 (1×10^6 living cells), day 60 post-injection, vs control) was “inhibited pro-angiogenic factors” and the “debris-stimulated orthotopic ovarian tumor growth” value [5] was “suppressed debris-stimulated orthotopic ovarian tumor growth”. The “survival compared to control, paclitaxel-generated debris orthotopic model” value ([5]; log-rank test=7.91, p=0.005) was “significantly prolonged survival”.
